In publication PMC4518038, “Identification of a Class of Protein ADP-Ribosylating Sirtuins in Microbial Pathogens” (Molecular Cell, 2015):

Key:
[1] = target: T1, LplA2 (S. pyogenes) (Streptococcus pyogenes, UniProt P0DN72); assay: lipoylation of GcvH-L, anti-lipoyl immunoblot; assay type: biochemical; settings: co-substrate SpyGcvH-L; 1 uM LplA, 2 uM target protein, 30 min, 30 C
T1 construct: gene lplA

[2] = target: T2, SauLplA1 (Staphylococcus aureus, UniProt A0A0H3JR16); settings: co-substrate SauGcvH or SauGcvH-L; 1 uM LplA, 2 uM target protein, 30 min, 30 C
T2 construct: gene SAV1028
T2 sequence (A0A0H3JR16 whole entry): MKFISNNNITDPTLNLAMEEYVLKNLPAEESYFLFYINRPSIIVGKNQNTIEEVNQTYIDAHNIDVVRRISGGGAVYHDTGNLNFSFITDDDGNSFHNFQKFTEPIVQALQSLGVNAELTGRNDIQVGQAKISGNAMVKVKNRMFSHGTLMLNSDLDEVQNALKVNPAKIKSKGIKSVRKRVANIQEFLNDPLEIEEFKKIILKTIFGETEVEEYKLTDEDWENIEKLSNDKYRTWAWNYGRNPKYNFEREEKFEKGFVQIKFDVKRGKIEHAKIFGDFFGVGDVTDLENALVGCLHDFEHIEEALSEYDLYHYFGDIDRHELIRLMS

[3] = target: T3, SauLplA2 (Staphylococcus aureus, UniProt A0A0H3JX98); assay: lipoylation of GcvH-L, anti-lipoyl immunoblot; assay type: biochemical; settings: co-substrate SauGcvH-L; 1 uM LplA, 2 uM target protein, 30 min, 30 C
T3 construct: gene SAV0327
T3 sequence (A0A0H3JX98 1-340): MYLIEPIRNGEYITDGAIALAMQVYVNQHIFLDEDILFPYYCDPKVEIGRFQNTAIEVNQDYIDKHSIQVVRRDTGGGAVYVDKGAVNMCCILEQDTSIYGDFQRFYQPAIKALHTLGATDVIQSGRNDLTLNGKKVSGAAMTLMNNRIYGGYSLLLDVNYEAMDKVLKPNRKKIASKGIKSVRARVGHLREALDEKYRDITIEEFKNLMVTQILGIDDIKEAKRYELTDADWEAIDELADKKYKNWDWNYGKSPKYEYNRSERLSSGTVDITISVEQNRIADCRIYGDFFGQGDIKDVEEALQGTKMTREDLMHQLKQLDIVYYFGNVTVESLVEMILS

[4] = target: T4, EcoLplA (Escherichia coli, UniProt P32099); assay: lipoylation of GcvH / GcvH-L, anti-lipoyl immunoblot; assay type: biochemical; settings: co-substrate EcoGcvH, SauGcvH or SauGcvH-L; 1 uM LplA, 2 uM target protein, 30 min, 30 C
T4 construct: gene lplA
T4 sequence (P32099 2-338): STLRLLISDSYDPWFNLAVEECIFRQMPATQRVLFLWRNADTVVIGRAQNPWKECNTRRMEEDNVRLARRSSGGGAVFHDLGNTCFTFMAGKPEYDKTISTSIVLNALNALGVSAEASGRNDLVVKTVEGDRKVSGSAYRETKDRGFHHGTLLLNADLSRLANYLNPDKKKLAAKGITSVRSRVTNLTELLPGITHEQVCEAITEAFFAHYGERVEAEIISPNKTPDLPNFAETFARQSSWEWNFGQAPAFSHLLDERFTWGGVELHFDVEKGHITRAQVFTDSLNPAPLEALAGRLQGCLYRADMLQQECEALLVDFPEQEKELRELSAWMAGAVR

[5] = target: T5, SpySirTM (Streptococcus pyogenes, UniProt P0DN71); assay: X-ray crystallography (crystal soak); assay type: binding; settings: 1 mM ligand soak, 10 min; 2.03 A; active site; also ADP-ribosyl donor for lipoylated GcvH-L
T5 construct: gene SpyM50869; crystal model residues 3-292 (7-10 not visible)
T5 sequence (P0DN71 whole entry, the tested form may be a part): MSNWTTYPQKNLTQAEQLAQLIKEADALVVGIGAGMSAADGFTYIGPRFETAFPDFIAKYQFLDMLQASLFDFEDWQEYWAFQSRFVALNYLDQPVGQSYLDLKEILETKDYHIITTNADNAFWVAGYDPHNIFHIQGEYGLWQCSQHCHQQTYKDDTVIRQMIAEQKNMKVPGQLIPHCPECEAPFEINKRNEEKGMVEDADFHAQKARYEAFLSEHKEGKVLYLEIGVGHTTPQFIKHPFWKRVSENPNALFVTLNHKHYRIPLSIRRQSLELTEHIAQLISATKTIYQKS

T1 sequence (P0DN72 whole entry): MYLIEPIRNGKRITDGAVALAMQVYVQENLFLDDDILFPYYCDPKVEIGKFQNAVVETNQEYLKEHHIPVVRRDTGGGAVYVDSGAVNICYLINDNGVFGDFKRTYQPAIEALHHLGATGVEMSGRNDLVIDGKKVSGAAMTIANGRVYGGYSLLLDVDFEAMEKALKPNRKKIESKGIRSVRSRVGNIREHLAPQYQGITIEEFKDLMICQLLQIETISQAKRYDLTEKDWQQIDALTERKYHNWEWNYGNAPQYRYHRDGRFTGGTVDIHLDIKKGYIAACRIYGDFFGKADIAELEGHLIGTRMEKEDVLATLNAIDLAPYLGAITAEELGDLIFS

Structure (SMILES)	lipoylation of GcvH-L, anti-lipoyl immunoblot [1]	lipoylation of GcvH / GcvH-L, anti-lipoyl immunoblot [2]	lipoylation of GcvH-L, anti-lipoyl immunoblot [3]	lipoylation of GcvH / GcvH-L, anti-lipoyl immunoblot [4]	X-ray crystallography (crystal soak) [5]
O=C(O)CCCC[C@@H]1CCSS1 (racemic) [lipoic acid]	both operonal LplA2s efficiently transferred lipoic acid (LA) onto GcvH-L	SauLplA1 appears to be indiscriminative toward both S. aureus GcvHs	both operonal LplA2s efficiently transferred lipoic acid (LA) onto GcvH-L	EcoLplA readily modifies all three GcvHs	–
NC(=O)c1ccc[n+]([C@@H]2O[C@H](COP(=O)(O)OP(=O)(O)OC[C@H]3O[C@@H](n4cnc5c(N)ncnc54)[C@H](O)[C@@H]3O)[C@@H](O)[C@H]2O)c1 [NAD^+]	–	–	–	–	The ligand-SpySirTM complexes reveal that the general mode of NAD^+ binding to SpySirTM is similar
